Experiments:
Test in all cases: Dundee kinase panel
Format in all cases: biochemical
Conditions in all cases: for remaining activity at 1 µM: read-out: residual activity
IRAK1 = molecular target: T1, IRAK1 (Homo sapiens, UniProt P51617)
T1 construct: lines 1-140) and Reaction Biology
Description: (§1) Compounds were screened at 1 μM. For key hits, pIC50 values were then determined by HTRF as above. […] Stability in mouse and human liver microsomes was determined by Cyprotex.

ASK1 = molecular target: T2, ASK1 (Homo sapiens, UniProt Q99683)
T2 construct: lines 1-140) and Reaction Biology
T2 sequence (Q99683 1-1374): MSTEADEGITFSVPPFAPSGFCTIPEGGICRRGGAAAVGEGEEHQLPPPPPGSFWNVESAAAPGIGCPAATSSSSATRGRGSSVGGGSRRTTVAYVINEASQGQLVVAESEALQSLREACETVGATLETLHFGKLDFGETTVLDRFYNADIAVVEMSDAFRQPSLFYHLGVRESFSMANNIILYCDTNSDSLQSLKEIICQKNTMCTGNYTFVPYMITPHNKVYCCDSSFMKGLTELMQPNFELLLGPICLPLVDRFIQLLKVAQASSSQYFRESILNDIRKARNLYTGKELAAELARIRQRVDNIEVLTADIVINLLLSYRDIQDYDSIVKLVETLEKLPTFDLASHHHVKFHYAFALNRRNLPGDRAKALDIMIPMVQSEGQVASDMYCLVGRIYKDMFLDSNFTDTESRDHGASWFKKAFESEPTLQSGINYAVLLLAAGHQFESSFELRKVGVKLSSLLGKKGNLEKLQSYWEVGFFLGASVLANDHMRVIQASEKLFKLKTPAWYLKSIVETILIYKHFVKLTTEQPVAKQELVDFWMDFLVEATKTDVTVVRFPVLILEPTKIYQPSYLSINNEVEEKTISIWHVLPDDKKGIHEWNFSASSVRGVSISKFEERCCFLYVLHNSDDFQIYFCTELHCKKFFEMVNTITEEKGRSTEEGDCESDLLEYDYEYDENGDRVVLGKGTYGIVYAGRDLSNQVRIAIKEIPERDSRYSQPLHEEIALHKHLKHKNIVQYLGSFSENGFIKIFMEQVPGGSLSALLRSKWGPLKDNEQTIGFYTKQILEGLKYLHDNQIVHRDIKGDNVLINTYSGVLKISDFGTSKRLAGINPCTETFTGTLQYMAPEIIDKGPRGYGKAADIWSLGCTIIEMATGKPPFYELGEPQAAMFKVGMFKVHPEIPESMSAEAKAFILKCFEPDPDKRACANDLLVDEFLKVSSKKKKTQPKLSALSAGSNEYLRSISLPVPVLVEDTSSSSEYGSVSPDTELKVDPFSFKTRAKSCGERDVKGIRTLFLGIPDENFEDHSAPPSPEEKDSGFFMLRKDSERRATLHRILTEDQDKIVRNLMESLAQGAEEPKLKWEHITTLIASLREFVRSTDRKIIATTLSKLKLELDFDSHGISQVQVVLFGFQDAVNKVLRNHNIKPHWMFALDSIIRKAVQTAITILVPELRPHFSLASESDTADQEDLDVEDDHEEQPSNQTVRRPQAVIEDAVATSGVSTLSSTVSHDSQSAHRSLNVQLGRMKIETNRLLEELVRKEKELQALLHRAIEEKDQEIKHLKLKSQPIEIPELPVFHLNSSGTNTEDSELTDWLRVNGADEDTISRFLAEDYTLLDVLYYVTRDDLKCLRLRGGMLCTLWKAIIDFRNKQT
Description: as §1

TRKA = molecular target: T3, TRKA (Homo sapiens, UniProt P04629)
T3 construct: lines 1-140) and Reaction Biology
T3 sequence (P04629 33-796): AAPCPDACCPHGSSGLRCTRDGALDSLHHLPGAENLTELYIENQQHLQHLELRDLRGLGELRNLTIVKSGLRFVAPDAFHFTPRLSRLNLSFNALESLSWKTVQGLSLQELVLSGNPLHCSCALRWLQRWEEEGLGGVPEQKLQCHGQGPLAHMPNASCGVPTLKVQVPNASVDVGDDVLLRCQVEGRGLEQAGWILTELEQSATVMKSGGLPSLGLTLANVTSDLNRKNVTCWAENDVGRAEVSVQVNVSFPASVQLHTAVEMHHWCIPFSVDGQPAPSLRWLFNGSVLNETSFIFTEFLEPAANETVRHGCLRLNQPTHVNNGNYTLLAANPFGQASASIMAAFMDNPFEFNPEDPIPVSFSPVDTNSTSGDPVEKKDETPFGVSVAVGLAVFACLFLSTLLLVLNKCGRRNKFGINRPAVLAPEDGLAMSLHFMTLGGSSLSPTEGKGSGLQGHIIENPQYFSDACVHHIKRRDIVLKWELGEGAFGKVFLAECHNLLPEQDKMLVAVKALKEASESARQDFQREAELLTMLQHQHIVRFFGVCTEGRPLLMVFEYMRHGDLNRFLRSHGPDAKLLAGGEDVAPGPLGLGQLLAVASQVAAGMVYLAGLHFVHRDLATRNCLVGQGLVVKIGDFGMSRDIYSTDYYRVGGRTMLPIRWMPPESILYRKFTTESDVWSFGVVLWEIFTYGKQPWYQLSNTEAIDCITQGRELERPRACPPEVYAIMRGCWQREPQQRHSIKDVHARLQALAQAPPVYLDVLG
Description: as §1

S6K1 = molecular target: T4, S6K1 (Homo sapiens, UniProt P23443)
T4 construct: lines 1-140) and Reaction Biology
T4 sequence (P23443 whole entry): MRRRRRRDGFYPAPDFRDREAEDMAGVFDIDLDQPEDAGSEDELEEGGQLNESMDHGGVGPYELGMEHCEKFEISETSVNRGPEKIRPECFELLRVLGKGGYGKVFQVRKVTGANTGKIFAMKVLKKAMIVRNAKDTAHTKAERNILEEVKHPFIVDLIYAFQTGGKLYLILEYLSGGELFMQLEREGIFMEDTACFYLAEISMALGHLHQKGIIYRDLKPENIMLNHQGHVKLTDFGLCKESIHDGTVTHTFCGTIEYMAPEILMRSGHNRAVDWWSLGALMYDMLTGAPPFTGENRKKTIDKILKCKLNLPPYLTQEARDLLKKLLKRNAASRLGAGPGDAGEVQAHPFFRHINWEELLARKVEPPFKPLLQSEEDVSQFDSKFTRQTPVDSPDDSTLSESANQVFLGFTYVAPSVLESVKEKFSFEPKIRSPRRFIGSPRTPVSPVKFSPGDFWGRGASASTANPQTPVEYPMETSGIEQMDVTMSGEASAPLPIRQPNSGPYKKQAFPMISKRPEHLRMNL
Description: as §1

EPH-B3 = molecular target: T5, EPH-B3 (Homo sapiens, UniProt P54753)
T5 construct: lines 1-140) and Reaction Biology
T5 sequence (P54753 34-998): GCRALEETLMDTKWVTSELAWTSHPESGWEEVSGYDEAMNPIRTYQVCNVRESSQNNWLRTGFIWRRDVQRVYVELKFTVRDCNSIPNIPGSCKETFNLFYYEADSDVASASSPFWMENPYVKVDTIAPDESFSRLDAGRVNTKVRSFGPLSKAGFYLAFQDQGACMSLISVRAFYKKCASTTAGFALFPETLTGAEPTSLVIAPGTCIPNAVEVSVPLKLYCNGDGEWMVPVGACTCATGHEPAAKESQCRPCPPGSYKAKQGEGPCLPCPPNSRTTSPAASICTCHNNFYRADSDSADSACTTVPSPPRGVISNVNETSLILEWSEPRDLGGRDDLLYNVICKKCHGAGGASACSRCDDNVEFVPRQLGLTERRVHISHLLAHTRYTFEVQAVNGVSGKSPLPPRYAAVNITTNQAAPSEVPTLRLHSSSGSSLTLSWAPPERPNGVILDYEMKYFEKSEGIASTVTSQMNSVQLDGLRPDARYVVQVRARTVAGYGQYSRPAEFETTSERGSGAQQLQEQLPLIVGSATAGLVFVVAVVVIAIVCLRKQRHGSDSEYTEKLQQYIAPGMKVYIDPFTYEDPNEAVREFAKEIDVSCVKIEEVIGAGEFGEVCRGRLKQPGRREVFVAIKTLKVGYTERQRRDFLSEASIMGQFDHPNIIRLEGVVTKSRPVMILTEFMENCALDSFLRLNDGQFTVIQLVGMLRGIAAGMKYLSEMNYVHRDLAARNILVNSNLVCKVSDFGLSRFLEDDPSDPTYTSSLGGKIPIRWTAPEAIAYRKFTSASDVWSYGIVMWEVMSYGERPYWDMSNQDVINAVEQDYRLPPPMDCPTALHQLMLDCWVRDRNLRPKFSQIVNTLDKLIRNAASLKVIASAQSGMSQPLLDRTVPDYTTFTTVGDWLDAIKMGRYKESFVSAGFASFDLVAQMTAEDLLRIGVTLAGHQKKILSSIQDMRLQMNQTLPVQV
Description: as §1

T1 sequence (P51617 whole entry): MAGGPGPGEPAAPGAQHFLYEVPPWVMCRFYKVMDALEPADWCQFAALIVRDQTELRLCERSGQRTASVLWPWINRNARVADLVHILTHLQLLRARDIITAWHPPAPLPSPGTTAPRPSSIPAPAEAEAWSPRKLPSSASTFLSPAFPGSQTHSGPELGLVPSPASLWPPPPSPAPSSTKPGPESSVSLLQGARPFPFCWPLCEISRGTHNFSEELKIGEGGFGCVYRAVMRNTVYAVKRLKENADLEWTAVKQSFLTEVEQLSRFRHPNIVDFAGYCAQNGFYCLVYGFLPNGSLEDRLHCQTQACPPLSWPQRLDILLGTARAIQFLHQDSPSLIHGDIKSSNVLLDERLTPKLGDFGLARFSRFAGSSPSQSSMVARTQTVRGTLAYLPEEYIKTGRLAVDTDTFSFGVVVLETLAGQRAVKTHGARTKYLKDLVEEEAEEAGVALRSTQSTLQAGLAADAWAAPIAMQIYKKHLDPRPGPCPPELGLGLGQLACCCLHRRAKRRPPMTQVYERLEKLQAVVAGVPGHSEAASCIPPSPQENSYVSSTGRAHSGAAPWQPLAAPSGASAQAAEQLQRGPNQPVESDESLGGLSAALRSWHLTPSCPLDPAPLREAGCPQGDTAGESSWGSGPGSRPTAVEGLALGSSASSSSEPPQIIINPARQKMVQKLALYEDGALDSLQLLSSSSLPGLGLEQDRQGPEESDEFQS

Work on `O=C1Nc2ccc(I)cc2/C1=C/c1cc(Br)c(O)c(Br)c1` [GW5074] yielded a remaining activity at 1 µM (IRAK1) of 57%, a remaining activity at 1 µM (ASK1) of 56% and a remaining activity at 1 µM (TRKA) of 51%. It also gave a remaining activity at 1 µM (S6K1) of 87% and a remaining activity at 1 µM (EPH-B3) of 94%.
`Oc1ncnc2c1c(-c1ccccc1)cn2-c1ccccc1` [F1386-0303, 5,7-diphenyl-7H-pyrrolo[2,3-d]pyrimidin-4-ol] gave a remaining activity at 1 µM (IRAK1) of 107%, a remaining activity at 1 µM (ASK1) of 93% and a remaining activity at 1 µM (TRKA) of 89%. It also gave a remaining activity at 1 µM (S6K1) of 105% and a remaining activity at 1 µM (EPH-B3) of 104%.
`O=C1Cc2c([nH]c3ccc(Br)cc23)-c2ccccc2N1` [Kenpaullone] showed a remaining activity at 1 µM (IRAK1) of 39%, a remaining activity at 1 µM (ASK1) of 68% and a remaining activity at 1 µM (S6K1) of 97%.
`COCCOc1ccc(-c2cn(-c3ccccc3)c3nc[nH]c(=O)c23)cc1` [DMX-5804, 5-[4-(2-methoxy-ethoxy)-phenyl]-7-phenyl-3,7-dihydro-pyrrolo[2,3-d]pyrimidin-4-one] showed a remaining activity at 1 µM (IRAK1) of 100%, a remaining activity at 1 µM (ASK1) of 108% and a remaining activity at 1 µM (TRKA) of 74%. The remaining activity at 1 µM (S6K1) was 121% and the remaining activity at 1 µM (EPH-B3) was 96%.
Molecule `Nc1ncc(C(=O)NC2CN(C(=O)C3CC3)C2)c2ccc(-c3cccc(F)c3)nc12` [GNE-495] has a residual activity (IRAK1; 1 μM) of 113%, a residual activity (ASK1; 1 μM) of 84% and a residual activity (TRKA; 1 μM) of 68%. The residual activity (S6K1; 1 μM) was 43% and the residual activity (EPH-B3; 1 μM) was 87%.
